Measured values from BindingDB's records for doi:10.1021/jm00079a004 (National Institute of Diabetes and Digestive and Kidney …, 1992).

Target: Sigma non-opioid intracellular receptor 1 (Cavia porcellus)
Experiment: Displacement of [3H]-(+) -3PPP from sigma receptor in guinea pig brain membranes

Row | Ki [nM] | SMILES
1 | 7.4 | CN(CCc1ccccc1)CCN1CCCC1
2 | 2.1 | CN(CCc1ccc2ccccc2c1)CCN1CCCC1
3 | 1.4 | C=CCN(CCc1ccc(Cl)c(Cl)c1)CCN1CCCC1
4 | 1.8 | CN(CCCN1CCCC1)CCc1ccc(Cl)c(Cl)c1
5 | 1.5 | CN(CCc1ccc(Cl)cc1)CCN1CCCC1
6 | 1.5 | CC(CN(C)CCc1ccc(Cl)c(Cl)c1)N(C)C (stereo unspecified)
7 | 0.38 | CN(CCN1CCCC1)Cc1ccc(Cl)c(Cl)c1

Row | SMILES | Ki [nM]
8 | CN(C)CCNCCc1ccc(Cl)c(Cl)c1 | 20
9 | CCN(CCc1ccc(Cl)c(Cl)c1)CCN1CCCC1 | 0.51
10 | CCN(CC)CCN(C)CCc1ccc(Cl)c(Cl)c1 | 0.73
11 | CNCCN(C)CCc1ccc(Cl)c(Cl)c1 | 5.8
